Test results published in patent US7247615B2, “Peptide agonists of prostate-specific antigen and uses therefor” (priority 2001, dated 2007).

Columns and labels:
[1] = tested on: HLA-A2/K^b transgenic mice; experiment: Immunization of HLA-A2.1/Kb transgenic mice with peptide-pulsed DCs, IFN-γ production by T cells; format: in vivo, mouse; conditions: 24 h
Excerpt: Transgenic Mice. HLA-A2.1/K^b transgenic mice were kindly provided by Dr. L. Sherman (Scripps Laboratories, San Diego, Calif.). Transgenic mice express the product of the HLA-A2.1/Kb chimeric gene in which the alpha-3 domain of the heavy chain is replaced by mouse H-2/K^b domain, but the HLA-A2.1 alpha-1 and alpha-2 domains are unaltered (A. Vitiello et al., 1991, J. Exp. Med. 173:1007–1015; V. H. Engelhard et al., 1991, J. Immunol. 46:1226–1232).
In Vivo Immunization and Murine T cell Cultures. Three groups of HLA-A2.1/K^b transgenic mice (three mice per group) were immunized s.c. (subcutaneously) in the base of the tail with PSA-3 peptide-pulsed HLA-A2.1/K^b DC, PSA-3A peptide-pulsed DCs from HLA-A2.1/K^b transgenic mice, or DCs only. Peptides were used at a concentration of 50 μg/ml and DCs were used at 1×10^6 cell/mouse/injection. A total of three injections were given to each animal, 2 weeks apart. Mice injected with DCs only were used as controls. Mice were sacrificed 7 days after the last injection, and spleen cells were restimulated in vitro with 25 μg/ml of PSA-3 or PSA3A peptide with irradiated syngeneic spleen cell for 6 days. The cytokine production of these bulk cultures was tested. Peptide-pulsed Jurkat A2 (JA2 K^b) cells were used as stimulator cells. Jurkat 0201 K^b cells are stable transfectants of the human T cell leukemia line, Jurkat, which express the product of HLA-A0201K^b climeric gene (L. A. Sherman et al., 1992, Science 258:815–818).
The HLA-A2/K^b transgenic mouse has been previously reported to aid in the determination of the immunogenicity of HLA-A2 peptides for humans. This in vivo system was thus employed to further analyze and compare the immunogenicity of the PSA-3A peptide with that of the native PSA-3 peptide. DCs from the HLA-A2/K^b transgenic mice were pulsed with either the PSA-3 or the PSA-3A peptide and used to vaccinate HLA-A2b mice. DCs alone (no peptide) were also used as a control vaccine. After three vaccinations at 2-week intervals, T cells were isolated from splenocytes obtained 2 weeks after the last vaccination. The T cells were then incubated with Jurkat A2/K^b cells pulsed with the PSA-3 peptide, the PSA-3A peptide, or no peptide, and production of INF-γ was measured from supernatants after 24 h.

[2] = tested on: DCs; experiment: IL-12 production by peptide-pulsed DCs in the presence of T cells; format: cell-based, human
Description: It has been previously shown that the activation of T cells by peptidepulsed DCs is related to the level of IL-12 production by the DCs. Studies were therefore conducted to determine the levels of IL-12 production by DCs pulsed with PSA-3 and PSA-3A peptides in the presence of T cells. […] When DCs pulsed with the PSA3A peptide were incubated with both T cell lines, the DCs incubated with the T-PSA-3A line again produced higher levels of IL-12 than those peptide-pulsed DCs incubated with the T cell line T-PSA-3 (Table 3).

[3] = tested on: V8T cells; format: cell-based, human
[4] = molecular target: T1, HLA-A2 (Homo sapiens, UniProt P04439, D140Y/D185E/D98H/E176V/E277Q/G131W/G231S/I119V/I121R/I166T/I218V/L300P/L318F/N151K/N90K/P208A/P217A/Q86G/Q94H/R138H/R169H/T345S); experiment: Stability of peptide-HLA-A2 complex on T2A2 cells (brefeldin A); format: binding; conditions: 50 μg/ml overnight, 8-h observation period, FIG. 2
T1 construct: endogenous in cells; host or cells: T2A2 / 174CEM-T2 (T2) transport deletion mutant cell line
Description: FIG. 2. Comparison of the stability of the complex of the PSA-3 or PSA-3A peptide with HLA-A2. T2A2 cells were incubated with PSA-3 (open squares) or PSA-3A (closed squares) peptide at a concentration of 50 μg/ml overnight and then washed free of unbound peptide and incubated with brefeldin A to block delivery of new class I molecules to cell surface. At indicated times, cells were stained for the presence of surface peptide-HLA-A2 complexes. Results are expressed in relative % binding as compared to 100% binding at time zero.
Studies were then undertaken to examine the stability of the peptideMHC complex for peptides PSA-3 and PSA-3A. Peptides were incubated with T2A2 cells overnight, washed free of unbound peptide and incubated with brefeldin-A to block delivery of new class I molecules to the cell surface. At various time points, cells were analyzed for the presence of peptide-HLA-A2 complexes. […] Thus, both the ability of the peptide to bind MHC (FIGS. 1A–1B) and the stability (FIG. 2), i.e., avidity of the peptide-MHC complex, are greater for the PSA-3A peptide than the native PSA-3 peptide.

Sequence: VLSNDVCAQV (SEQ ID NO:3) [PSA-3A]
- Production of IFN-γ ([1]; label = peptide pulsed on immunizing DCs, Jurkat A2/K^b cells pulsed with PSA-3A (25 μg/ml)): 6,218.9 pg/ml/10^6 cells
- Production of IFN-γ ([1]; label = peptide pulsed on immunizing DCs, Jurkat A2/K^b cells with no peptide): <37.0 pg/ml/10^6 cells
- Production of IFN-γ ([1]; label = peptide pulsed on immunizing DCs, T cells restimulated with Jurkat A2/K^b cells pulsed with PSA-3 (25 μg/ml)): 5,094.3 pg/ml/10^6 cells
- Production of IFN-γ ([1]; mice immunized with DCs (no peptide), label = peptide pulsed on Jurkat A2/K^b cells): <37.0 pg/ml/10^6 cells
- IL-12 PRODUCTION ([2]; APC DC, T cell line T-PSA-3, peptide 25 μg/ml, 10:1, 24 h, IVS-4): 6.0 pg/ml/5 × 10^5 DC
- IL-12 PRODUCTION ([2]; APC DC, T cell line T-PSA-3A, peptide 25 μg/ml, 10:1, 24 h, IVS-4): 27.5 pg/ml/5 × 10^5 DC
- IL-12 PRODUCTION ([2]; no APC, T cell line T-PSA-3, peptide 25 μg/ml, 24 h): <0.6 pg/ml/5 × 10^5 DC
- IL-12 PRODUCTION ([2]; no APC, T cell line T-PSA-3A, peptide 25 μg/ml, 24 h): <0.6 pg/ml/5 × 10^5 DC
- Production of IFN-γ by V8T [3]: <13.0 pg/mL
- Stability of peptide-HLA-A2 complexes [4]: more stable than PSA-3 complexes
